Reference: US20250011351A1, “[…] O-ACETYLPSILOCIN, SALTS AND SOLID STATE FORMS THEREOF” (Terran Biosciences Inc., priority 2021, published 2025)

Assay: Humidity exposure (RH jars, hygroscopicity test; handling at ambient humidity)
Format: physicochemical
Procedure: Solids deliquesced within approx. 1 hour of exposure to elevated relative humidity. The sample was capped and placed in a freezer for storage.

## CC(=O)Oc1cccc2[nH]cc(CCN(C)C)c12.Cl [O-acetyl psilocin hydrochloride]
Open vial inside a 75% RH jar (hygroscopicity test)
  time to deliquescence: ≤ 1 h

## Psilocybin Mesylate
Ambient humidity (~50-60%)
  behaviour when handled at ambient humidity: became tacky and deliquesced

## CC(=O)Oc1cccc2[nH]cc(CCN(C)C)c12.O=P(O)(O)O [phosphate salt (Forms A+B), O-acetyl psilocin phosphate]
65% RH
  deliquescence: deliquesce
Evaluation using RH jars
  hygroscopicity: low

## CC(=O)Oc1cccc2[nH]cc(CCN(C)C)c12.O=C(O)/C=C\C(=O)O [non-crystalline maleate salt, O-acetyl psilocin maleate]
Ambient relative humidity (50% RH in summertime)
  physical stability of the non-crystalline material: unstable
